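Exposure lasted 48 hours, with cells grown in 96-well plates and compounds tested at five concentrations. TGI is the concentration that stops growth completely.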
Assays:
Experiment in all cases: NCI-60 cell line screen, 48 h
SK-MEL-28 melanoma = test system: SK-MEL-28 melanoma
OVCAR-8 ovarian = test system: OVCAR-8 ovarian
K-562 leukemia = test system: K-562 leukemia
A549 NSCLC = test system: A549 NSCLC
HCT-15 colon = test system: HCT-15 colon
NCI-H522 lung = test system: NCI-H522 lung
MDA-MB-435 = test system: MDA-MB-435
HCC-2998 colon = test system: HCC-2998 colon
SF-539 CNS = test system: SF-539 CNS
DU-145 prostate = test system: DU-145 prostate
EKVX NSCLC = test system: EKVX NSCLC
HT29 colon = test system: HT29 colon
IGROV1 ovarian = test system: IGROV1 ovarian

SMILES | TGI (SK-MEL-28 melanoma) [µM] | TGI (OVCAR-8 ovarian) [µM] | TGI (K-562 leukemia) [µM] | TGI (A549 NSCLC) [µM] | TGI (HCT-15 colon) [µM] | TGI (NCI-H522 lung) [µM] | TGI (MDA-MB-435) [µM] | TGI (HCC-2998 colon) [µM] | TGI (SF-539 CNS) [µM] | TGI (DU-145 prostate) [µM] | TGI (EKVX NSCLC) [µM] | TGI (HT29 colon) [µM] | TGI (IGROV1 ovarian) [µM]
O/N=C1/C2CC3CC1(c1ccccc1)CC(/C3=N/O)/C2=N\O (centres undefined) | > 100 | > 100 | > 100 | > 100 | > 100 | > 100 | > 100 | > 100 | > 100 | > 100 | > 100 | > 100 | 
CCOP(=O)(OCC)C1(O)CC(n2cc(C)c(=O)[nH]c2=O)OC1CO (centres undefined) | > 100 | > 100 | > 100 | > 100 | > 100 | > 100 | > 100 | > 100 | > 100 | > 100 | > 100 | > 100 | > 100
OC(CCN1CCN(CCOC(c2ccccc2)c2ccccc2)CC1)c1ccc(Br)cc1 (centres undefined) | 22.8 | 19.9 |  | 30.5 | 19.3 | 29.4 | 27 | 3.96 | 27.6 | 32.4 | 23.5 | 16.5 | 24.7
COc1cc(C(c2cccc3ccccc23)N2C(=O)CCC2C(=O)NCc2ccccc2)cc(OC)c1OC (centres undefined) | > 100 | > 100 |  | > 100 | > 100 | > 100 | > 100 | > 100 | > 100 | > 100 | > 100 | > 100 | > 100
CCN1CCCC(Nc2cc(C)nc(/N=C(/N)Nc3ccc(Cl)c(Cl)c3)n2)C1 (centres undefined) | 3.34 |  | 0.558 | 4.22 | 3.7 | 2.61 | 2.89 | 1.89 | 3.66 | 15.3 | 11.4 | 15.7 | 3.06
CC1C2CC(C/C2=N/O)C1(C)C (centres undefined) | > 100 | > 100 | > 100 | > 100 |  | > 100 | > 100 | > 100 | > 100 | > 100 | > 100 | > 100 | > 100
Cc1cc(S(=O)(=O)Nc2nc3ccccc3n2-c2ccccc2)c(S)cc1Cl | > 100 | > 100 | > 100 | > 100 | > 100 | > 100 | > 100 | > 100 | > 100 | > 100 | > 100 |  | > 100
CCC(=O)NC(OCC1(CC)COC1)(C(F)(F)F)C(F)(F)F | > 100 |  | > 100 |  | > 100 | > 100 | > 100 | > 100 | > 100 | > 100 | > 100 | > 100 | 
Cc1nn(C)c2nc3ccc(Cl)cc3c(-c3ccccc3)c12 | > 100 | > 100 | > 100 | > 100 | > 100 | > 100 | > 100 | > 100 | > 100 | > 100 | > 100 | > 100 | 
Cc1cc(C)c2c(=N)c3ccccc3n(CCCCCCO)c2n1 | 33 | 5.49 |  | 17.7 | 9.69 | 3.14 | 16.7 | 7.07 | 9.48 | 25.3 | 6.33 | 3.93 | 10.9
N#Cc1c(Nc2nc3ccccc3s2)c2ccccc2n2c1nc1ccccc12 | > 100 | > 100 |  | > 100 | > 100 | > 100 | > 100 | > 100 | > 100 | > 100 | > 100 | > 100 | > 100
Cc1ccc(S(=O)(=O)c2ccc([N+](=O)[O-])o2)cc1 | 3.81 | 1.82 |  | 28.1 | 2.83 | 0.578 | 3.69 | 13.1 | 3.34 | 8.58 | 7.79 | 3.2 | 3.37
C=CC(C)(C)c1cc([C@@H]2COc3cc(O)ccc3C2=O)c(O)c(O)c1OC | 67.2 | 30.9 | > 100 | > 100 | 32 | 38.1 | 39.2 | > 100 | 57.9 | 46.2 | 99.4 | 47.4 | 
CCOC(=O)c1c(N2CCOCC2)[nH]c(=O)c(C(c2cccs2)c2c(O)c(C(=O)OCC)c(N3CCOCC3)[nH]c2=O)c1O | > 100 | > 100 | > 100 | > 100 | > 100 | > 100 | > 100 | > 100 | > 100 | > 100 | > 100 | > 100 | 
COc1ccc2c(c1OC)C(=O)O[C@@H]2[C@H]1c2cc3c(cc2CCN1C)OCO3 |  | > 100 | > 100 | > 100 | > 100 | > 100 | > 100 | > 100 | > 100 | > 100 | > 100 | > 100 | > 100
